Source: patent US8937183B2, “Detection of hydrogen peroxide” (Promega Corporation, priority 2011, dated 2015)

Key:
[1] = Light generation from compounds following incubation with hydrogen peroxide in different pH solutions (D-cysteine conversion, LDR); type: biochemical; settings: for Signal to Background Ratios: signal with peroxide to background no peroxide
Procedure: In this experiment, various compounds were tested for their ability to detect hydrogen peroxide in different pH solutions. Several compounds are shown to give much better signal strength and signal to background ratios than PBI 3048 (Example 23). 4 mg/ml solutions of compounds PBI 4480, 4481, 4452, 4470, 4472, 3048 (FIGS. 1 and 2) were made by dissolving them in DMSO (Fluka 41641). 30 μl of the compound solutions was diluted to 1.5 ml with Nanopure water, and 50 μl aliquots added as follows into a white, 96-well luminometer plate: PBI 4481, row A1-12; PBI 4480, row B1-12; PBI 4452, row C1-12; PBI 3048, row D1-12; PBI 4472, row E1-12 and PBI 4470, row F1-12.
25 μl of 200 mM TRIS buffer, pH 7.6 was added to wells A1-F4, 25 μl of 200 mM TRIS buffer, pH 8.8 was added to wells A5-F8, and 25 μl of 200 mM Tris buffer, pH 10.4 was added […].
30% hydrogen peroxide (Sigma H 1009-5 ml) was diluted to 40 μM in Nanopure water, and 25 μl added to columns 3, 4, 7, 8, 11 and 12 of the plate. 25 μl water was added to columns 1, 2, 5, 6, 9, and 10 of the plate, and the plate incubated at room temperature for 60 minutes.
A conversion solution was made by mixing 100 μl of 100 mM D-cysteine, 1 ml Tris Buffer pH 8.8 and 8.9 ml nanopure water. After mixing, 80 μl of the solution was added to wells A1-F12 of a new luminometer plate.
After incubation, 20 μl of sample from wells A1-F12 of the first plate was transferred to the same well in the new luminometer plate. The new plate was incubated at room temperature for 5 minutes, 100 μl of LDR (Example 23) was added to wells A1-F12, and bioluminescence detected on a Glo Max® luminometer (Promega).
The RLUs for the duplicate wells were averaged. The averages for the wells containing hydrogen peroxide were compared to the wells without hydrogen peroxide at the same pH (Table 2). BZT is used to designate benzothiazole derivatives of the compounds.
The Signal to Background (S/B) ratio is used to compare assay reagents with very difference signal strengths. An assay with a higher S/B ratio is often considered a better assay than one with a smaller S/B ratio (with all other factors being relatively equal).

[2] = Signal strength differences due to reaction pH and buffer composition (hydrogen peroxide, D-cysteine conversion, LDR); type: biochemical; settings: for Net Average Signals at 15 Minutes / Net Average Signals at 60 Minutes / Net Average Signals at 105 Minutes: 100 μl of 10 μM H2O2 added
Procedure: A 30 μl sample of 4 mg/ml PBI 4458 in DMSO was diluted to 1.5 ml with Nanopure water, and 50 μl added to wells A1-12 and E1-12 of a microtiter plate. A 30 μl sample of 4 mg/ml PBI 4472 in DMSO was diluted to 1.5 ml with Nanopure, and 50 μl added to wells B1-12 and F1-12 of the plate. A 30 μl sample of 4 mg/ml PBI 4480 in DMSO was diluted to 1.5 ml with Nanopure water, and 50 μl added to wells C1-12 and G1-12 of the plate. A 30 μl sample of 4 mg/ml PBI 4481 in DMSO was diluted to 1.5 ml with Nanopure water, and 50 μl added to wells D1-12 and H1-12 of the plate. To the plate, a 50 μl sample of 200 mM KHPO4, pH 7.4 was added to wells A1-D4; 50 μl 200 mM Tris buffer, pH 7.4 was added to wells A5-D8; 50 μl 250 mM HEPES buffer, pH 7.5 was added to wells A9-D12; 50 μl 200 mM KHPO4 buffer, pH 9.2 was added to wells E1-H4; 50 μl 250 mM Tris buffer, pH 10.4 was added to wells E5-H8; and 50 μl 100 mM CAPS buffer, pH 10.4 was added to wells E9-H12.
A sample of hydrogen peroxide (30%, Sigma, H1009-5 ml) was diluted to 10 μM with Nanopure water, and 100 μl added to columns 3, 4, 7, 8, 11, 12 wells A-H of the plate. 100 μl Nanopure water was added to columns 1, 2, 5, 6, 9 and 10 of the plate. The plate was incubated at room temperature for 15 minutes.
A conversion solution was made by mixing 5 ml of 1 M HEPES buffer, pH 7.5, 4.9 ml of Nanopure water and 100 μl of 100 mM D-cysteine (in Nanopure water), and […] added to all wells of a luminometer plate.
After incubation, 25 μl of sample from all wells in the plate was transferred and mixed into the corresponding wells in the luminometer plate, incubated 2-3 minutes at room temperature, and 50 μl LDR (Example 23) added. The luminometer plate was incubated for 15 minutes at room temperature, and bioluminescence detected on a GloMax® luminometer.
Additional samples were taken at 60 and 105 minutes and added to a fresh luminometer plates containing 25 μl of conversion solution in all wells. The plates were then incubated for 15 minutes at room temperature, and bioluminescence detected as previously described.

[3] = pH 7.6 TRIS buffer, No H2O2, 60 minutes
[4] = pH 7.6 TRIS buffer, With H2O2 (25 μl of 40 μM added), 60 minutes
[5] = pH 8.8 TRIS buffer, No H2O2, 60 minutes
[6] = pH 8.8 TRIS buffer, With H2O2 (25 μl of 40 μM added), 60 minutes
[7] = pH 10.4 Tris buffer, No H2O2, 60 minutes
[8] = pH 10.4 Tris buffer, With H2O2 (25 μl of 40 μM added), 60 minutes

## CC1(C)OB(c2ccc(COc3ccc4nc(C#N)sc4c3)c3ccccc23)OC1(C)C [PBI 4480, 6-((4-(4,4,5,5-tetramethyl-1,3,2-dioxaborolan-2-yl)naphthalen-1-yl)methoxy)benzo[d]thiazole-2-carbonitrile]
[1]; pH 7.6
  Signal to Background Ratios: 4.5
[1]; [3]
  averaged RLUs (bioluminescence): 146,664 RLU
[1]; [4]
  averaged RLUs (bioluminescence): 657,132 RLU
[1]; pH 8.8
  Signal to Background Ratios: 8.7
[1]; [5]
  averaged RLUs (bioluminescence): 179,821 RLU
[1]; [6]
  averaged RLUs (bioluminescence): 1,563,422 RLU
[1]; pH 10.4
  Signal to Background Ratios: 20.0
[1]; [7]
  averaged RLUs (bioluminescence): 265,315 RLU
[1]; [8]
  averaged RLUs (bioluminescence): 5,295,463 RLU
[2]; CAPS pH 10.4, 15 minutes
  Signal to Background Ratios at 15 Minutes: 12.1
  Net Average Signals at 15 Minutes: 1,799,015 RLU
[2]; CAPS pH 10.4, 60 minutes
  Signal to Background Ratios at 60 Minutes: 14.7
  Net Average Signals at 60 Minutes: 4,256,769 RLU
[2]; CAPS pH 10.4, 105 minutes
  Signal to Background Ratios at 105 Minutes: 12.6
  Net Average Signals at 105 Minutes: 7,150,225 RLU
[2]; HEPES pH 7.5, 15 minutes
  Signal to Background Ratios at 15 Minutes: 1.0
  Net Average Signals at 15 Minutes: −234 RLU
[2]; HEPES pH 7.5, 60 minutes
  Signal to Background Ratios at 60 Minutes: 1.7
  Net Average Signals at 60 Minutes: 29,727 RLU
[2]; HEPES pH 7.5, 105 minutes
  Signal to Background Ratios at 105 Minutes: 2.3
  Net Average Signals at 105 Minutes: 75,066 RLU
[2]; KPO4 Ph 7.4, 15 minutes
  Net Average Signals at 15 Minutes: 3,538 RLU
[2]; KPO4 pH 7.4, 15 minutes
  Signal to Background Ratios at 15 Minutes: 1.1
[2]; KPO4 pH 7.4, 60 minutes
  Signal to Background Ratios at 60 Minutes: 1.6
  Net Average Signals at 60 Minutes: 38,198 RLU
[2]; KPO4 pH 7.4, 105 minutes
  Signal to Background Ratios at 105 Minutes: 1.9
  Net Average Signals at 105 Minutes: 86,881 RLU
[2]; KPO4 pH 9.2, 15 minutes
  Signal to Background Ratios at 15 Minutes: 1.7
  Net Average Signals at 15 Minutes: 37,330 RLU
[2]; KPO4 pH 9.2, 60 minutes
  Signal to Background Ratios at 60 Minutes: 3.6
  Net Average Signals at 60 Minutes: 218,078 RLU
[2]; KPO4 pH 9.2, 105 minutes
  Signal to Background Ratios at 105 Minutes: 5.1
  Net Average Signals at 105 Minutes: 587,867 RLU
[2]; TRIS pH 10.4, 15 minutes
  Signal to Background Ratios at 15 Minutes: 11.1
  Net Average Signals at 15 Minutes: 743,427 RLU
[2]; TRIS pH 10.4, 60 minutes
  Signal to Background Ratios at 60 Minutes: 17.9
  Net Average Signals at 60 Minutes: 1,903,885 RLU
[2]; TRIS pH 10.4, 105 minutes
  Signal to Background Ratios at 105 Minutes: 17.5
  Net Average Signals at 105 Minutes: 3,541,742 RLU
[2]; Tris pH 7.4, 15 minutes
  Signal to Background Ratios at 15 Minutes: 1.2
  Net Average Signals at 15 Minutes: 7,845 RLU
[2]; Tris pH 7.4, 60 minutes
  Signal to Background Ratios at 60 Minutes: 2.0
  Net Average Signals at 60 Minutes: 61,031 RLU
[2]; Tris pH 7.4, 105 minutes
  Signal to Background Ratios at 105 Minutes: 2.6
  Net Average Signals at 105 Minutes: 162,663 RLU

## CC1(C)OB(c2ccc(COc3ccc4nc(C#N)sc4c3)cc2F)OC1(C)C [PBI 4481, 6-((3-fluoro-4-(4,4,5,5-tetramethyl-1,3,2-dioxaborolan-2-yl)benzyl)oxy)benzo[d]thiazole-2-carbonitrile]
[1]; pH 7.6
  Signal to Background Ratios: 7.0
[1]; [3]
  averaged RLUs (bioluminescence): 124,246 RLU
[1]; [4]
  averaged RLUs (bioluminescence): 873,626 RLU
[1]; pH 8.8
  Signal to Background Ratios: 21.1
[1]; [5]
  averaged RLUs (bioluminescence): 135,530 RLU
[1]; [6]
  averaged RLUs (bioluminescence): 2,854,279 RLU
[1]; pH 10.4
  Signal to Background Ratios: 32.4
[1]; [7]
  averaged RLUs (bioluminescence): 230,459 RLU
[1]; [8]
  averaged RLUs (bioluminescence): 7,474,603 RLU
[2]; CAPS pH 10.4, 15 minutes
  Signal to Background Ratios at 15 Minutes: 15.0
  Net Average Signals at 15 Minutes: 3,139,869 RLU
[2]; CAPS pH 10.4, 60 minutes
  Signal to Background Ratios at 60 Minutes: 15.6
  Net Average Signals at 60 Minutes: 4,514,998 RLU
[2]; CAPS pH 10.4, 105 minutes
  Signal to Background Ratios at 105 Minutes: 12.3
  Net Average Signals at 105 Minutes: 6,646,007 RLU
[2]; HEPES pH 7.5, 15 minutes
  Signal to Background Ratios at 15 Minutes: 1.4
  Net Average Signals at 15 Minutes: 15,697 RLU
[2]; HEPES pH 7.5, 60 minutes
  Signal to Background Ratios at 60 Minutes: 2.5
  Net Average Signals at 60 Minutes: 56,121 RLU
[2]; HEPES pH 7.5, 105 minutes
  Signal to Background Ratios at 105 Minutes: 3.0
  Net Average Signals at 105 Minutes: 111,757 RLU
[2]; KPO4 Ph 7.4, 15 minutes
  Net Average Signals at 15 Minutes: 16,032 RLU
[2]; KPO4 pH 7.4, 15 minutes
  Signal to Background Ratios at 15 Minutes: 1.5
[2]; KPO4 pH 7.4, 60 minutes
  Signal to Background Ratios at 60 Minutes: 2.2
  Net Average Signals at 60 Minutes: 48,355 RLU
[2]; KPO4 pH 7.4, 105 minutes
  Signal to Background Ratios at 105 Minutes: 2.7
  Net Average Signals at 105 Minutes: 108,403 RLU
[2]; KPO4 pH 9.2, 15 minutes
  Signal to Background Ratios at 15 Minutes: 4.7
  Net Average Signals at 15 Minutes: 189,573 RLU
[2]; KPO4 pH 9.2, 60 minutes
  Signal to Background Ratios at 60 Minutes: 8.3
  Net Average Signals at 60 Minutes: 494,981 RLU
[2]; KPO4 pH 9.2, 105 minutes
  Signal to Background Ratios at 105 Minutes: 7.7
  Net Average Signals at 105 Minutes: 974,784 RLU
[2]; TRIS pH 10.4, 15 minutes
  Signal to Background Ratios at 15 Minutes: 23.2
  Net Average Signals at 15 Minutes: 1,467,615 RLU
[2]; TRIS pH 10.4, 60 minutes
  Signal to Background Ratios at 60 Minutes: 27.8
  Net Average Signals at 60 Minutes: 2,780,433 RLU
[2]; TRIS pH 10.4, 105 minutes
  Signal to Background Ratios at 105 Minutes: 24.2
  Net Average Signals at 105 Minutes: 4,441,956 RLU
[2]; Tris pH 7.4, 15 minutes
  Signal to Background Ratios at 15 Minutes: 1.9
  Net Average Signals at 15 Minutes: 29,382 RLU
[2]; Tris pH 7.4, 60 minutes
  Signal to Background Ratios at 60 Minutes: 3.5
  Net Average Signals at 60 Minutes: 111,440 RLU
[2]; Tris pH 7.4, 105 minutes
  Signal to Background Ratios at 105 Minutes: 4.4
  Net Average Signals at 105 Minutes: 245,489 RLU
